From PubChem BioAssay (NCI)
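A five-concentration, 48-hour dose response in 96-well plates underlies each endpoint, interpolated linearly between surrounding concentrations. The concentration for 50% growth inhibition is given as GI50. At the TGI there is no net growth.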

Legend:
Assay in all cases: DTP human tumour cell line panel, 48 h
786-0 renal = tested on: 786-0 renal
A498 renal = tested on: A498 renal
A549 NSCLC = tested on: A549 NSCLC
ACHN renal = tested on: ACHN renal
BT-549 breast = tested on: BT-549 breast
CAKI-1 renal = tested on: CAKI-1 renal
CCRF-CEM leukemia = tested on: CCRF-CEM leukemia
COLO 205 colon = tested on: COLO 205 colon
DU-145 prostate = tested on: DU-145 prostate
EKVX NSCLC = tested on: EKVX NSCLC
HCC-2998 colon = tested on: HCC-2998 colon
HCT-116 colon = tested on: HCT-116 colon
HCT-15 colon = tested on: HCT-15 colon
HL-60(TB) leukemia = tested on: HL-60(TB) leukemia
HOP-62 NSCLC = tested on: HOP-62 NSCLC
HOP-92 NSCLC = tested on: HOP-92 NSCLC
HS 578T breast = tested on: HS 578T breast
HT29 colon = tested on: HT29 colon
IGROV1 ovarian = tested on: IGROV1 ovarian
K-562 leukemia = tested on: K-562 leukemia
KM12 colon = tested on: KM12 colon
LOX IMVI melanoma = tested on: LOX IMVI melanoma
M14 melanoma = tested on: M14 melanoma
MALME-3M melanoma = tested on: MALME-3M melanoma
MCF7 breast = tested on: MCF7 breast
MDA-MB-231 breast = tested on: MDA-MB-231 breast
MDA-MB-435 = tested on: MDA-MB-435
MDA-MB-468 breast = tested on: MDA-MB-468 breast
MOLT-4 leukemia = tested on: MOLT-4 leukemia
NCI-H226 lung = tested on: NCI-H226 lung
NCI-H23 lung = tested on: NCI-H23 lung
NCI-H460 lung = tested on: NCI-H460 lung
NCI-H522 lung = tested on: NCI-H522 lung
NCI/ADR-RES ovarian = tested on: NCI/ADR-RES ovarian
OVCAR-3 ovarian = tested on: OVCAR-3 ovarian
OVCAR-4 ovarian = tested on: OVCAR-4 ovarian
OVCAR-5 ovarian = tested on: OVCAR-5 ovarian
OVCAR-8 ovarian = tested on: OVCAR-8 ovarian
PC-3 prostate = tested on: PC-3 prostate
RPMI-8226 leukemia = tested on: RPMI-8226 leukemia
RXF 393 renal = tested on: RXF 393 renal
SF-268 CNS = tested on: SF-268 CNS
SF-295 CNS = tested on: SF-295 CNS
SF-539 CNS = tested on: SF-539 CNS
SK-MEL-2 melanoma = tested on: SK-MEL-2 melanoma
SK-MEL-28 melanoma = tested on: SK-MEL-28 melanoma
SK-MEL-5 melanoma = tested on: SK-MEL-5 melanoma
SK-OV-3 ovarian = tested on: SK-OV-3 ovarian
SN12C renal = tested on: SN12C renal
SNB-19 CNS = tested on: SNB-19 CNS
SNB-75 CNS = tested on: SNB-75 CNS
SR leukemia = tested on: SR leukemia
SW-620 colon = tested on: SW-620 colon
T-47D breast = tested on: T-47D breast
TK-10 renal = tested on: TK-10 renal
U251 CNS = tested on: U251 CNS
UACC-257 melanoma = tested on: UACC-257 melanoma
UACC-62 melanoma = tested on: UACC-62 melanoma
UO-31 renal = tested on: UO-31 renal

SMILES: CN1CCN(c2ccc(Nc3nc(NCCCNC(=O)C4CCCCC4)c4sccc4n3)cc2)CC1
- GI50 (786-0 renal): 10.8 µM
- TGI (786-0 renal): 26.4 µM
- GI50 (A498 renal): 22 µM
- TGI (A498 renal): 37.7 µM
- GI50 (A549 NSCLC): 20.7 µM
- TGI (A549 NSCLC): 80.8 µM
- GI50 (ACHN renal): 15.6 µM
- TGI (ACHN renal): 35.1 µM
- GI50 (BT-549 breast): 13.3 µM
- TGI (BT-549 breast): 27.3 µM
- GI50 (CAKI-1 renal): 14.5 µM
- TGI (CAKI-1 renal): 30.5 µM
- GI50 (CCRF-CEM leukemia): 3.77 µM
- TGI (CCRF-CEM leukemia): 37.6 µM
- GI50 (COLO 205 colon): 17.7 µM
- TGI (COLO 205 colon): 38.2 µM
- GI50 (DU-145 prostate): 14.9 µM
- TGI (DU-145 prostate): 30.5 µM
- GI50 (EKVX NSCLC): 15.8 µM
- TGI (EKVX NSCLC): 33.9 µM
- GI50 (HCC-2998 colon): 13.8 µM
- TGI (HCC-2998 colon): 26.9 µM
- GI50 (HCT-116 colon): 3.98 µM
- TGI (HCT-116 colon): 18.5 µM
- GI50 (HCT-15 colon): 5.77 µM
- TGI (HCT-15 colon): 25.6 µM
- GI50 (HL-60(TB) leukemia): 4.55 µM
- TGI (HL-60(TB) leukemia): 23.3 µM
- GI50 (HOP-62 NSCLC): 18.2 µM
- TGI (HOP-62 NSCLC): 36.3 µM
- GI50 (HOP-92 NSCLC): 10.6 µM
- TGI (HOP-92 NSCLC): 34.3 µM
- GI50 (HS 578T breast): 12.8 µM
- TGI (HS 578T breast): 36.2 µM
- GI50 (HT29 colon): 4.28 µM
- TGI (HT29 colon): 17 µM
- GI50 (IGROV1 ovarian): 14 µM
- TGI (IGROV1 ovarian): 30.8 µM
- GI50 (K-562 leukemia): 2.72 µM
- TGI (K-562 leukemia): 47 µM
- GI50 (KM12 colon): 19.4 µM
- TGI (KM12 colon): 44.9 µM
- GI50 (LOX IMVI melanoma): 10.7 µM
- TGI (LOX IMVI melanoma): 23.1 µM
- GI50 (M14 melanoma): 4.23 µM
- TGI (M14 melanoma): 16 µM
- GI50 (MALME-3M melanoma): 7.31 µM
- TGI (MALME-3M melanoma): 19.8 µM
- GI50 (MCF7 breast): 10 µM
- TGI (MCF7 breast): 24 µM
- GI50 (MDA-MB-231 breast): 13.2 µM
- TGI (MDA-MB-231 breast): 30.8 µM
- GI50 (MDA-MB-435): 15.6 µM
- TGI (MDA-MB-435): 30.8 µM
- GI50 (MDA-MB-468 breast): 2.96 µM
- TGI (MDA-MB-468 breast): 17.2 µM
- GI50 (MOLT-4 leukemia): 3.19 µM
- TGI (MOLT-4 leukemia): 20.8 µM
- GI50 (NCI-H226 lung): 12.6 µM
- TGI (NCI-H226 lung): 26.3 µM
- GI50 (NCI-H23 lung): 14.1 µM
- TGI (NCI-H23 lung): 29.1 µM
- GI50 (NCI-H460 lung): 14.6 µM
- TGI (NCI-H460 lung): 30.8 µM
- GI50 (NCI-H522 lung): 13 µM
- TGI (NCI-H522 lung): 27 µM
- GI50 (NCI/ADR-RES ovarian): 21.1 µM
- TGI (NCI/ADR-RES ovarian): 54.5 µM
- GI50 (OVCAR-3 ovarian): 16.2 µM
- TGI (OVCAR-3 ovarian): 33.5 µM
- GI50 (OVCAR-4 ovarian): 15.7 µM
- TGI (OVCAR-4 ovarian): 57.7 µM
- GI50 (OVCAR-5 ovarian): 16.1 µM
- TGI (OVCAR-5 ovarian): 34.6 µM
- GI50 (OVCAR-8 ovarian): 16 µM
- TGI (OVCAR-8 ovarian): 36.7 µM
- GI50 (PC-3 prostate): 12.4 µM
- TGI (PC-3 prostate): 42.2 µM
- GI50 (RPMI-8226 leukemia): 3.92 µM
- TGI (RPMI-8226 leukemia): 19.9 µM
- GI50 (RXF 393 renal): 5.49 µM
- TGI (RXF 393 renal): 20 µM
- GI50 (SF-268 CNS): 10.4 µM
- TGI (SF-268 CNS): 40.7 µM
- GI50 (SF-295 CNS): 12.9 µM
- TGI (SF-295 CNS): 26.3 µM
- GI50 (SF-539 CNS): 3.15 µM
- TGI (SF-539 CNS): 12.8 µM
- GI50 (SK-MEL-2 melanoma): 18.7 µM
- TGI (SK-MEL-2 melanoma): 33.6 µM
- GI50 (SK-MEL-28 melanoma): 6.24 µM
- TGI (SK-MEL-28 melanoma): 19.5 µM
- GI50 (SK-MEL-5 melanoma): 8.82 µM
- TGI (SK-MEL-5 melanoma): 21 µM
- GI50 (SK-OV-3 ovarian): 23.4 µM
- TGI (SK-OV-3 ovarian): 59.2 µM
- GI50 (SN12C renal): 14.2 µM
- TGI (SN12C renal): 29.4 µM
- GI50 (SNB-19 CNS): 22.1 µM
- TGI (SNB-19 CNS): 47.1 µM
- GI50 (SNB-75 CNS): 11.2 µM
- TGI (SNB-75 CNS): 24.7 µM
- GI50 (SR leukemia): 2.13 µM
- TGI (SR leukemia): 6.3 µM
- GI50 (SW-620 colon): 17.3 µM
- TGI (SW-620 colon): 36.4 µM
- GI50 (T-47D breast): 11.4 µM
- TGI (T-47D breast): 37.9 µM
- GI50 (TK-10 renal): 24.6 µM
- TGI (TK-10 renal): 51.7 µM
- GI50 (U251 CNS): 4.64 µM
- TGI (U251 CNS): 19.9 µM
- GI50 (UACC-257 melanoma): 3.61 µM
- TGI (UACC-257 melanoma): 14.9 µM
- GI50 (UACC-62 melanoma): 15.1 µM
- TGI (UACC-62 melanoma): 28.6 µM
- GI50 (UO-31 renal): 11.9 µM
- TGI (UO-31 renal): 24.6 µM
